Source: PubChem BioAssay (NCI)
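Values below derive from 48-hour exposures of cells grown in 96-well plates, with endpoints linearly interpolated between the two concentrations bracketing the appropriate inhibition level. The concentration for 50% growth inhibition is given as GI50. The concentration for full growth arrest is given as TGI.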 Where a SMILES comes first, the peptide text is derived from it. [ ]: non-standard residue; d: D form. The star is where a group is joined. Decanoyl = CCCCCCCCCC(=O)*; Leu(ol) = CC(C)C[C@H](N)CO; Iva = CC[C@](C)(N)C(=O)O; Aib = CC(C)(N)C(=O)O

Assays:
Test in all cases: NCI tumour cell line growth inhibition, 48 h
HCT-15 colon = test system: HCT-15 colon
M14 melanoma = test system: M14 melanoma
SNB-75 CNS = test system: SNB-75 CNS
CCRF-CEM leukemia = test system: CCRF-CEM leukemia
A549 NSCLC = test system: A549 NSCLC
SK-MEL-5 melanoma = test system: SK-MEL-5 melanoma
T-47D breast = test system: T-47D breast
MALME-3M melanoma = test system: MALME-3M melanoma
SN12C renal = test system: SN12C renal
KM12 colon = test system: KM12 colon
NCI-H522 lung = test system: NCI-H522 lung
OVCAR-3 ovarian = test system: OVCAR-3 ovarian
UACC-257 melanoma = test system: UACC-257 melanoma
RXF 393 renal = test system: RXF 393 renal
HOP-62 NSCLC = test system: HOP-62 NSCLC
BT-549 breast = test system: BT-549 breast
OVCAR-5 ovarian = test system: OVCAR-5 ovarian
CAKI-1 renal = test system: CAKI-1 renal
U251 CNS = test system: U251 CNS
SK-OV-3 ovarian = test system: SK-OV-3 ovarian
HCC-2998 colon = test system: HCC-2998 colon
UACC-62 melanoma = test system: UACC-62 melanoma
RPMI-8226 leukemia = test system: RPMI-8226 leukemia
OVCAR-4 ovarian = test system: OVCAR-4 ovarian
NCI-H23 lung = test system: NCI-H23 lung
NCI/ADR-RES ovarian = test system: NCI/ADR-RES ovarian
NCI-H460 lung = test system: NCI-H460 lung
HCT-116 colon = test system: HCT-116 colon
IGROV1 ovarian = test system: IGROV1 ovarian
SK-MEL-2 melanoma = test system: SK-MEL-2 melanoma
MDA-MB-231 breast = test system: MDA-MB-231 breast
MOLT-4 leukemia = test system: MOLT-4 leukemia
SNB-19 CNS = test system: SNB-19 CNS
COLO 205 colon = test system: COLO 205 colon
PC-3 prostate = test system: PC-3 prostate
HL-60(TB) leukemia = test system: HL-60(TB) leukemia
MCF7 breast = test system: MCF7 breast
SF-539 CNS = test system: SF-539 CNS
UO-31 renal = test system: UO-31 renal
SW-620 colon = test system: SW-620 colon
LOX IMVI melanoma = test system: LOX IMVI melanoma
SK-MEL-28 melanoma = test system: SK-MEL-28 melanoma
OVCAR-8 ovarian = test system: OVCAR-8 ovarian
HS 578T breast = test system: HS 578T breast
786-0 renal = test system: 786-0 renal
SF-295 CNS = test system: SF-295 CNS
ACHN renal = test system: ACHN renal
SF-268 CNS = test system: SF-268 CNS
K-562 leukemia = test system: K-562 leukemia
HT29 colon = test system: HT29 colon
NCI-H226 lung = test system: NCI-H226 lung
A498 renal = test system: A498 renal
HOP-92 NSCLC = test system: HOP-92 NSCLC
EKVX NSCLC = test system: EKVX NSCLC
SR leukemia = test system: SR leukemia
DU-145 prostate = test system: DU-145 prostate
TK-10 renal = test system: TK-10 renal
MDA-MB-435 = test system: MDA-MB-435

Compound: CCCCCCCCCC(=O)NC(C)(C)C(=O)N1CCC[C@H]1C(=O)N[C@@H](CC(C)C)C(=O)N[C@@](C)(CC)C(=O)N[C@@H](CCC(N)=O)C(=O)N[C@H](CCC(N)=O)C(=O)NC(C)(C)C(=O)NC(C)(C)C(=O)N[C@@H](CCC(N)=O)C(=O)N[C@H](CC(C)C)C(=O)N[C@H](CO)CC(C)C (Decanoyl-[Aib]PL[Iva]Q[dQ][Aib][Aib]Q[dL][Leu(ol)])
- GI50 (HCT-15 colon): 1900 nM
- TGI (HCT-15 colon): 3790 nM
- GI50 (M14 melanoma): 1770 nM
- TGI (M14 melanoma): 3290 nM
- GI50 (SNB-75 CNS): 1460 nM
- TGI (SNB-75 CNS): 2790 nM
- GI50 (CCRF-CEM leukemia): 1810 nM
- TGI (CCRF-CEM leukemia): 3600 nM
- GI50 (A549 NSCLC): 1860 nM
- TGI (A549 NSCLC): 3850 nM
- GI50 (SK-MEL-5 melanoma): 1740 nM
- TGI (SK-MEL-5 melanoma): 3170 nM
- GI50 (T-47D breast): 2020 nM
- TGI (T-47D breast): 4310 nM
- GI50 (MALME-3M melanoma): 1510 nM
- TGI (MALME-3M melanoma): 2890 nM
- GI50 (SN12C renal): 1700 nM
- TGI (SN12C renal): 3170 nM
- GI50 (KM12 colon): 1830 nM
- TGI (KM12 colon): 3330 nM
- GI50 (NCI-H522 lung): 1730 nM
- TGI (NCI-H522 lung): 3330 nM
- GI50 (OVCAR-3 ovarian): 1790 nM
- TGI (OVCAR-3 ovarian): 3250 nM
- GI50 (UACC-257 melanoma): 1750 nM
- TGI (UACC-257 melanoma): 3240 nM
- GI50 (RXF 393 renal): 1930 nM
- TGI (RXF 393 renal): 3450 nM
- GI50 (HOP-62 NSCLC): 1950 nM
- TGI (HOP-62 NSCLC): 3800 nM
- GI50 (BT-549 breast): 1850 nM
- TGI (BT-549 breast): 3300 nM
- GI50 (OVCAR-5 ovarian): 1700 nM
- TGI (OVCAR-5 ovarian): 3070 nM
- GI50 (CAKI-1 renal): 1700 nM
- TGI (CAKI-1 renal): 3130 nM
- GI50 (U251 CNS): 1720 nM
- TGI (U251 CNS): 3220 nM
- GI50 (SK-OV-3 ovarian): 1930 nM
- TGI (SK-OV-3 ovarian): 3800 nM
- GI50 (HCC-2998 colon): 1800 nM
- TGI (HCC-2998 colon): 3390 nM
- GI50 (UACC-62 melanoma): 1630 nM
- TGI (UACC-62 melanoma): 2980 nM
- GI50 (RPMI-8226 leukemia): 1920 nM
- TGI (RPMI-8226 leukemia): 3950 nM
- GI50 (OVCAR-4 ovarian): 2050 nM
- TGI (OVCAR-4 ovarian): 4630 nM
- GI50 (NCI-H23 lung): 1790 nM
- TGI (NCI-H23 lung): 3520 nM
- GI50 (NCI/ADR-RES ovarian): 1830 nM
- TGI (NCI/ADR-RES ovarian): 3550 nM
- GI50 (NCI-H460 lung): 1890 nM
- TGI (NCI-H460 lung): 3470 nM
- GI50 (HCT-116 colon): 1850 nM
- TGI (HCT-116 colon): 3490 nM
- GI50 (IGROV1 ovarian): 1800 nM
- TGI (IGROV1 ovarian): 3360 nM
- GI50 (SK-MEL-2 melanoma): 1740 nM
- TGI (SK-MEL-2 melanoma): 3240 nM
- GI50 (MDA-MB-231 breast): 1760 nM
- TGI (MDA-MB-231 breast): 3260 nM
- GI50 (MOLT-4 leukemia): 2290 nM
- TGI (MOLT-4 leukemia): 5900 nM
- GI50 (SNB-19 CNS): 1700 nM
- TGI (SNB-19 CNS): 3100 nM
- GI50 (COLO 205 colon): 1860 nM
- TGI (COLO 205 colon): 3600 nM
- GI50 (PC-3 prostate): 1710 nM
- TGI (PC-3 prostate): 3300 nM
- GI50 (HL-60(TB) leukemia): 1870 nM
- TGI (HL-60(TB) leukemia): 3970 nM
- GI50 (MCF7 breast): 1780 nM
- TGI (MCF7 breast): 3450 nM
- GI50 (SF-539 CNS): 1720 nM
- TGI (SF-539 CNS): 3110 nM
- GI50 (UO-31 renal): 1600 nM
- TGI (UO-31 renal): 2950 nM
- GI50 (SW-620 colon): 1860 nM
- TGI (SW-620 colon): 3460 nM
- GI50 (LOX IMVI melanoma): 1730 nM
- TGI (LOX IMVI melanoma): 3290 nM
- GI50 (SK-MEL-28 melanoma): 1690 nM
- TGI (SK-MEL-28 melanoma): 3060 nM
- GI50 (OVCAR-8 ovarian): 1840 nM
- TGI (OVCAR-8 ovarian): 3660 nM
- GI50 (HS 578T breast): 1810 nM
- TGI (HS 578T breast): 3510 nM
- GI50 (786-0 renal): 1840 nM
- TGI (786-0 renal): 3500 nM
- GI50 (SF-295 CNS): 1750 nM
- TGI (SF-295 CNS): 3260 nM
- GI50 (ACHN renal): 1860 nM
- TGI (ACHN renal): 3600 nM
- GI50 (SF-268 CNS): 1760 nM
- TGI (SF-268 CNS): 3310 nM
- GI50 (K-562 leukemia): 2440 nM
- GI50 (HT29 colon): 2010 nM
- TGI (HT29 colon): 3830 nM
- GI50 (NCI-H226 lung): 1880 nM
- TGI (NCI-H226 lung): 3860 nM
- GI50 (A498 renal): 1980 nM
- TGI (A498 renal): 3550 nM
- GI50 (HOP-92 NSCLC): 1640 nM
- TGI (HOP-92 NSCLC): 3140 nM
- GI50 (EKVX NSCLC): 1700 nM
- TGI (EKVX NSCLC): 3170 nM
- GI50 (SR leukemia): 2250 nM
- GI50 (DU-145 prostate): 1750 nM
- TGI (DU-145 prostate): 3130 nM
- GI50 (TK-10 renal): 1780 nM
- TGI (TK-10 renal): 3260 nM
- GI50 (MDA-MB-435): 1750 nM
- TGI (MDA-MB-435): 3160 nM
